Source: paper PMC8533176, “1,5-Benzodiazepin-2(3H)-ones: In Vitro Evaluation as Antiparkinsonian Agents” (Antioxidants, 2021)
Where two headings read alike, the source gives them in different places.

Columns and labels:
SH-SY5Y cells [1] = assay: cells; format: cell-based, human; details: for EC50: MTT
[2] = ABTS radical scavenging assay; format: biochemical; details: for IC50: 30-min incubation; for ABTS Assay TEAC50: Equivalent antioxidant capacity at Trolox 50 mM; for ABTS Assay TEAC100: Equivalent antioxidant capacity at Trolox 100 mM
Procedure: The mixture was stored in the dark at room temperature for 16 h. […] All the compounds tested were dissolved in EtOH. […] The degree of decolorization was calculated as the percentage reduction of absorbance. […] Trolox was used as a reference antioxidant.

[3] = Ferric reducing antioxidant power (FRAP) assay; format: biochemical; set-up: FRAP Assay Trolox Equivalents: unit not given here; details: for FRAP Assay Antioxidant Capacity (%) at 100 uM: compound at 100 uM; for FRAP Assay Antioxidant Capacity (%) at 200 uM: compound at 200 uM
Procedure: FRAP reagent was prepared by mixing 10 mL of 300 mM acetate buffer with 1 mL of 10 mM 2,4,6-tripyridyl-S-triazine (TPTZ) in HCl 40 mM and 1mL of FeCl3·6H2O 20 mM. […] Trolox was used as assay control.

[4] = Kinetic solubility by UV spectrometry; format: physicochemical; details: PBS 50 mM, aqueous buffer, kinetic from dmso stock
Procedure: A modified protocol was used from that described by Hoelke et al. for the determination of the kinetic solubility from DMSO compound solutions. A compound calibration curve (compound concentration vs UV absorption) was prepared for each compound with concentrations of 10, 20, 50, 100, and 200 µM. Each compound dilution was carried out by pipetting defined volumes of a 20 mM stock compound solution in DMSO into vials and adding PBS 50 mM to reach a final volume of 1 mL/well. The final amount of DMSO per well was 2%. For the lower compound concentrations, an additional volume of DMSO was added to each well to reach 2% DMSO. Then, 200 µL of each dilution was transferred to a new 96-well culture plate for the measurement of the UV-spectra. One well in each row was left without a compound as a blank, and its UV absorbance was used as an offset correction. The experiments were performed in duplicate.
In parallel, compound saturation solutions were reached and filtered from 20 mM compound stock in DMSO: 10 µL of a 20 mM stock solution was dispensed into 190 µL of PBS 10 mM. The solutions were mixed, shaken on a microplate shaker for two hours, and then 160 µL of each solution was filtered and transferred to a new well plate for UV absorption measurement.
Measurement of the UV-spectra was performed using a Varioskan microplate reader, and spectra were taken in the range of 270–600 nm. Spectral bandwidth was set to 5 nm, and the data pint interval was 10 nm. The experiments were carried out in triplicate.

SH-SY5Y cells [5] = assay: Cytotoxicity, MTT assay, SH-SY5Y; format: cell-based; details: Homo sapiens, read-out: SH-SY5Y IC50
Procedure: (§1) All compounds tested were dissolved and eventually further diluted in dimethylsulfoxide (DMSO). After overnight incubation, the cells were treated with different compound concentrations (5, 10, 20, 50, 100, 150, 200 µM) in a final volume of 200 µL with four replicates each. […] Cell proliferation or viability was measured using the 3-(4,5-dimethylthiazol-2-yl)-2,5-diphenyl tetrazolium bromide (MTT) assay. The MTT assay was optimized taking into account the number of cells plated per well, to work in the linear part of the cell density vs. MTT absorbance calibration curve, which allows achieving a maximum absorbance in the range of 0.8–1.0 in each well at the end of the experiment. In addition to that, the number of cells seeded for each experiment was optimized in agreement with the time scale of the experiment.
(§2) After cell treatment, 20 µL of MTT (5 mg/mL) was added to each well, and the plate was incubated at 37 °C in the dark for 2 h. Supernatants were removed, and the formazan crystals were solubilized in DMSO (200 µL/well), under 10 min shaking at room temperature. The reduction of MTT was quantified by absorbance at 570 nm in a Varioskan microplate reader (Thermo Fisher Scientific, Vantaa, Finland). Effects of the test compounds on cell viability were calculated using cells treated with a vehicle as a control. For IC50 and LD50 calculations, the data were subjected to linear regression analysis, and the regression lines were plotted for the best fit. The IC50 (inhibition of cell viability) concentrations were calculated using the respective dose–response curves.

HepG2 cells = assay: Cytotoxicity, MTT assay, HepG2; format: cell-based; details: Homo sapiens
Procedure: as §1, §2

SH-SY5Y cells [6] = assay: LDH release under H2O2; format: cell-based, human; details: H2O2 250 µM 24 h; compounds 24 h before; Figure 9
[7] = Chemical reactivity with H2O2; format: physicochemical; details: H2O2 500 µM, 37 °C, 4 h, DMEM:F12 without cells
Procedure: In our case, before running the protection experiments under oxidative stress conditions, we carried out experiments to assess the potential reactivity of compounds 9, 11, 13, and 18 at four different concentrations (5, 10, 20, and 40 µM) with H2O2 500 µM at 37 °C for 4 h in DMEM:F12 (without phenol red, FBS, and cells). Curcumin was used as a control compound.

SH-SY5Y cells [8] = assay: Neuroprotection against H2O2-induced oxidative stress, MTT; details: H2O2 250 µM 24 h; compounds 5-50 µM 24 h before; Figure 8
SH-SY5Y cells [9] = assay: Resazurin cell viability assay under H2O2; format: cell-based, human; details: 24-h incubation, resazurin
[10] = HepG2, MTT, cytotoxicity, read-out: HepG2 IC50

| Structure (SMILES) | EC50 (SH-SY5Y cells [1]; Homo sapiens, SH-SY5Y, 6-OHD 48 h, read-out: concentration at which the cell viability was reduced by 50%) [µM] | IC50 [2] [µM] | FRAP Assay Trolox Equivalents [3] | FRAP Assay Antioxidant Capacity (%) at 100 uM [3] [%] | FRAP Assay Antioxidant Capacity (%) at 200 uM [3] [%] | solubility [4] [µM] | IC50 (SH-SY5Y cells [5]) [µM] | IC50 (HepG2 cells; HepG2, read-out: HepG2 IC50) [µM] | melting point [°C] | ABTS Assay TEAC50 [2] | ABTS Assay TEAC100 [2] | IC50 (SH-SY5Y cells [5]; MTT, cytotoxicity) [µM] | IC50 (HepG2 cells; [10]) [µM] | LDH leakage (SH-SY5Y cells [6]) | Reaction with H2O2 [7] | Neuroprotection effect, cell viability (MTT) (SH-SY5Y cells [8]) | H2O2 lethal dose (LD50 / EC50), resazurin method (SH-SY5Y cells [9]) [µM] | H2O2 lethal dose (LD50 / EC50) (SH-SY5Y cells [1]) [µM] | EC50 (SH-SY5Y cells [1]; MPP+ 48 h, read-out: concentration that resulted in 50% cell viability) [µM] |
| --- | --- | --- | --- | --- | --- | --- | --- | --- | --- | --- | --- | --- | --- | --- | --- | --- | --- | --- | --- |
| NCCc1cc(O)c(O)cc1O [Compound 6-OHD, 6-hydroxydopamine] | 250 |  |  |  |  |  |  |  |  |  |  |  |  |  |  |  |  |  |  |
| CN1C(=O)CC(c2ccccc2Cl)=Nc2c(F)c(F)c(F)c(F)c21 [Compound 8, 6,7,8,9-tetrafluoro-4-(2-chlorophenyl)-1-methyl-1H-1,5-benzodiazepin-2(3H)-one] |  | > 1000 | 0.01 | 0.6 | 0.2 | < 100 | 150 ± 17 | 207 ± 27 | 128.7 |  |  |  |  |  |  |  |  |  |  |
| O=C1CC(c2ccccc2)=Nc2cc(F)c(F)cc2N1 [Compound 9, 7,8-Difluoro-4-phenyl-1H-1,5-benzodiazepin-2(3H)-one] |  | 432 ± 68 | 0.43 | 21.9 | 37.1 | < 50 |  |  |  | 0.36 | 0.18 | > 250 | > 250 | reduced LDH leakage to some degree | did not show any significant reaction |  |  |  |  |
| CN1C(=O)CC(c2ccccc2)=Nc2cc(F)c(F)cc21 [Compound 10, 7,8-Difluoro-1-methyl-4-phenyl-1H-1,5-benzodiazepin-2(3H)-one] |  | > 1000 | 0.01 | 0.3 | 0.6 | > 200 |  |  | 115.8 |  |  | 193 ± 15.9 | > 250 |  |  |  |  |  |  |
| O=C1CC(c2ccccc2)=Nc2ccc(F)cc2N1 [Compound 11, 8-Fluoro-4-phenyl-1H-1,5-benzodiazepin-2(3H)-one] |  | 306 ± 34.6 | 0.56 | 28.9 | 49.8 | < 20 |  |  |  | 0.35 | 0.17 | > 250 | > 250 |  | did not show any significant reaction | high variable neuroprotection results at concentrations higher than 10 µM |  |  |  |
| O=C1CC(c2ccccc2)=Nc2cc(F)ccc2N1 [Compound 13, 7-Fluoro-4-phenyl-H-1,5-benzodiazepin-2(3H)-one] |  | 325 ± 55 | 0.79 | 40.7 | 61.6 | < 20 |  |  | 205.7 | 0.36 | 0.19 | > 250 | > 250 |  | did not show any significant reaction |  |  |  |  |
| CN1C(=O)CC(c2ccccc2)=Nc2cc(F)ccc21 [Compound 14, 7-Fluoro-1-methyl-4-phenyl-1H-1,5-benzodiazepin-2(3H)-one] |  | > 1000 | 0.01 | 0.3 | 0.6 | > 200 | 220 ± 27.9 | 233 ± 18.7 | 107.7 |  |  |  |  |  |  |  |  |  |  |
| O=C1CC(c2ccccc2)=Nc2c(F)cc(F)cc2N1 [Compound 17, 6,8-Difluoro-4-phenyl-1H-1,5-benzodiazepin-2(3H)-one] |  | > 1000 | 0.04 | 1.8 | 2.5 | < 50 |  |  | 221.5 |  |  | > 250 | > 250 |  |  |  |  |  |  |
| COc1cc(C2=Nc3cc(C)c(C)cc3NC(=O)C2)cc(OC)c1OC [Compound 21, 7,8-Dimethyl-4-(3,4,5-trimethoxyphenyl)-1H-1,5-benzodiazepin-2(3H)-one] |  | 137 ± 5.3 | 0.89 | 47.2 | 60.9 | < 100 |  |  | 208.5 | 0.36 | 0.21 | > 250 | > 250 |  |  |  |  |  |  |
| COc1cc(C2=Nc3cc(F)c(F)cc3NC(=O)C2)cc(OC)c1OC [Compound 22, 7,8-Difluoro-4-(3,4,5-trimethoxyphenyl)-1H-1,5-benzodiazepin-2(3H)-one] |  | > 500 | 0.30 | 15.7 | 13.7 | < 100 |  |  | 241.8 |  |  | > 250 | > 250 |  |  |  |  |  |  |
| OO [Compound H2O2, hydrogen peroxide, reference compound] |  |  |  |  |  |  |  |  |  |  |  |  |  |  |  |  | 268 | 250 |  |
| C[n+]1ccc(-c2ccccc2)cc1 [MPP^+, 1-Methyl-4-phenylpyridinium] |  |  |  |  |  |  |  |  |  |  |  |  |  |  |  |  |  |  | 700 |
